Where two headings read alike, the source gives them in different places.
Assays:
[1] = tested on: indomethacin-induced gastric ulcers; assay type: in vivo, rat
Experimental: (§1) Male Wistar rats (Royal Hart, New Hampton, N.Y.), weighing 190-210 g are distributed among control and treatment groups (5 rats/group) and housed one rat per cage. During the 52 hour test period, the rats are permitted free access to food and drinking water for the first 33 hours but are fasted overnight prior to sacrifice. Indomethacin is suspended (4 mg/ml) in a 1.5% starch-phosphate buffer solution (SPBS). 1,9-dioxo-11α,16-dihydroxy-16-methyl-1-hydroxymethyl-13-transprostene is dissolved at 10 mg/ml in ethanol and then diluted in SPBS to 0.1 mg/ml or to a lower concentration as required. The indomethacin suspension is injected subcutaneously (10 mg/kg) and the prostaglandin suspension is given by gavage (0.5 mg/kg or less) b.i.d. on day 0 and 1. Rats receive only one dose of prostaglandin and indomethacin on day 2 and 6 hours later are killed with chloroform. The stomachs are dissected, opened along the greater curvature, and rinsed briefly in tap water. They are then spread, mucosal surface facing upward and pinned onto uniform size corks (2.5 inch diameter) individually numbered on the back. The identification number for each stomach is unknown to the investigator and the stomachs are randomly graded according to the following scheme:
1--Petechial hemorrhage, or pin-point ulcers
2--One or two small ulcers or hemorrhagic erosions
3--Many areas of hemorrhage erosion or ulcers, a few large
4--Massive areas of hemorrhagic erosion or many ulcers, mainly large
(§2) ^a Treatment is B.I.D. on days 0 and 1, and once on day 2, six hours
(§3) prior to sacrifice for scoring.

[2] = tested on: indomethacin-induced intestinal ulcers; assay type: in vivo, rat
Experimental: as §1
Intestines are also removed and examined for the presence of ulcers, which are graded according to the scheme outlined below.
1--Mucosa thin, petechial hemorrhage
2--"Blow-outs", when intestine inflated with air
3--Few ulcers. Gut more fragile than normal, tears along line of mesentery attachements when removed
4--Many large perforating lesions. Adhesions. Gut hemorrhagic and very fragile. Tears readily and cannot be removed intact. Graded in situ.
as §2, §3

[3] = assay type: in vivo, rat
Experimental: as §1, §2, §3

[4] = tested on: gastric secretion; test: Gastric anti-secretory test, Heidenhain pouch, histamine-stimulated; assay type: in vivo, dog; settings: oral 100 mg/Kg
Experimental: Unanesthetized mongrel dogs weighing 10-15 Kg are used. The animals have a surgically prepared denervated (Heidenhain) pouch which drains by gravity through a titanium cannula. These animals are trained to stand quietly in a Pavlov support. Gastric secretion is stimulated at the lowest rate giving stable secretion (25-40% of maximal) with histamine acid phosphate, 30-50 μg/Kg/hr. Under such stimulation, a stable gastric secretory output can generally be maintained for a period of at least 3 hours.
Gastric juice is collected continuously during secretory studies and pooled into 15-minute collections. Determination of collection volume, pH and titratable acidity is performed. Acid is determined by titrating an aliquot of gastric sample with 0.1 N NaOH to pH 7.0 using an automatic titrator.
Drugs are administered on a background of submaximal gastric secretory stimulation and the results compared with control secretory studies without the use of drug. Depending upon the duration of action of a particular drug, it may be possible for a single drug-secretory study to serve as its own control. The route of drug administration is oral administration into the main stomach.
For example, one of the PGE compounds of this invention 1,9-dioxo-11α,16-dihydroxy-16-methyl-1-hydroxymethyl-5-trans prostadiene on administration into the stomach of one of these dogs at a dose of […] gives the results shown hereinbelow in Table D. The data in Table D is the average of four tests in one dog.

[5] = .02 mg/kg P.O. with indomethacin 10 mg/kg subcut.
[6] = .1 mg/kg P.O. with indomethacin 10 mg/kg subcut.
[7] = .5 mg/kg P.O. with indomethacin 10 mg/kg subcut.
[8] = 0 min., average of four tests in one dog

## CCCCC(C)(O)CC=CC1C(O)CC(=O)C1CCCCCCC(=O)CO (stereo not drawn)
[1]; [5]
  Gastric Ulcer Score (Mean ± S.E.M.): 1.9 ± 0.4
[1]; [6]
  Gastric Ulcer Score (Mean ± S.E.M.): 1.7 ± 0.3
[1]; [7]
  Gastric Ulcer Score (Mean ± S.E.M.): 2.1 ± 0.4
[2]; [5]
  Intestinal Ulcer Score (Mean ± S.E.M.): 3.5 ± 0.2
[2]; [6]
  Intestinal Ulcer Score (Mean ± S.E.M.): 2.7 ± 0.2
[2]; [7]
  Intestinal Ulcer Score (Mean ± S.E.M.): 2.0 ± 0.4
[3]; [5]
  Hematocrit (Mean ± S.E.M.): 35.6 ± 1.9
[3]; [6]
  Hematocrit (Mean ± S.E.M.): 41.1 ± 2.4
[3]; [7]
  Hematocrit (Mean ± S.E.M.): 40.0 ± 1.4

## CCCCC(C)(O)CC=CC1C(O)CC(=O)C1CC=CCCCC(=O)CO (stereo not drawn) [1,9-dioxo-11α,16-dihydroxy-16-methyl-1-hydroxymethyl-5-cis-13-trans-prostadiene]
[4]; [8]
  Acid: 0.43 meg/15 min.
  Volume of gastric juice: 3.4 mL
[4]; 15 min.
  Acid: 0.35 meg/15 min.
  Volume of gastric juice: 2.6 mL
[4]; 30 min.
  Acid: 0.22 meg/15 min.
  Volume of gastric juice: 1.5 mL
[4]; 45 min.
  Acid: 0.20 meg/15 min.
  Volume of gastric juice: 1.3 mL
[4]; 60 min.
  Acid: 0.09 meg/15 min.
  Volume of gastric juice: 0.7 mL
[4]; 75 min.
  Acid: 0.13 meg/15 min.
  Volume of gastric juice: 0.9 mL
[4]; 90 min.
  Acid: 0.21 meg/15 min.
  Volume of gastric juice: 1.5 mL
[4]; 105 min.
  Acid: 0.27 meg/15 min.
  Volume of gastric juice: 1.9 mL
[4]; 120 min.
  Acid: 0.40 meg/15 min.
  Volume of gastric juice: 2.7 mL

— patent publication US4254285A, “1-Hydroxymethyl-1-1-oxo prostane derivatives of the E and F series” (American Cyanamid Company, priority 1979, dated 1981)
